Assays:
Type in all cases: functional, cell-based
Set-up in all cases: recommended concentration 100 nM
[1] = molecular target: Centromere-associated protein E (Homo sapiens) (UniProt Q02224); experiment: Affinity Phenotypic Cellular interaction: (Cell-growth inhibition assays (growth inhibitory effect colon cancer cell line Y79)) EUB0000734a CENPE; details: Affinity Phenotypic Cellular Source Knowledge https://pubmed.ncbi.nlm.nih.gov/20167803/
[2] = molecular target: Centromere-associated protein E (Homo sapiens) (UniProt Q02224); experiment: Affinity Phenotypic Cellular interaction: (Cell-growth inhibition assays (growth inhibitory effect colon cancer cell line HeLa)) EUB0000734a CENPE; details: Affinity Phenotypic Cellular Source Knowledge https://pubmed.ncbi.nlm.nih.gov/20167803/
[3] = molecular target: Centromere-associated protein E (Homo sapiens) (UniProt Q02224); experiment: Affinity Phenotypic Cellular interaction: (Cell-growth inhibition assays (growth inhibitory effect colon cancer cell line SK-MEL-3)) EUB0000734a CENPE; details: SK-MEL3, Affinity Phenotypic Cellular Source Knowledge https://pubmed.ncbi.nlm.nih.gov/20167803/
[4] = molecular target: Centromere-associated protein E (Homo sapiens) (UniProt Q02224); experiment: Affinity Phenotypic Cellular interaction: (Cell-growth inhibition assays (growth inhibitory effect colon cancer cell line SNU-398)) EUB0000734a CENPE; details: Affinity Phenotypic Cellular Source Knowledge https://pubmed.ncbi.nlm.nih.gov/20167803/
[5] = molecular target: Centromere-associated protein E (Homo sapiens) (UniProt Q02224); experiment: Affinity Phenotypic Cellular interaction: (Cell-growth inhibition assays (growth inhibitory effect sarcoma cancer cell line TE381.T)) EUB0000734a CENPE; details: TE 381.T, Affinity Phenotypic Cellular Source Knowledge https://pubmed.ncbi.nlm.nih.gov/20167803/
[6] = molecular target: Centromere-associated protein E (Homo sapiens) (UniProt Q02224); experiment: Affinity Phenotypic Cellular interaction: (Cell-growth inhibition assays (growth inhibitory effect colon cancer cell line CCF-STTG1)) EUB0000734a CENPE; details: Affinity Phenotypic Cellular Source Knowledge https://pubmed.ncbi.nlm.nih.gov/20167803/
[7] = molecular target: Centromere-associated protein E (Homo sapiens) (UniProt Q02224); experiment: Affinity Phenotypic Cellular interaction: (Cell-growth inhibition assays (growth inhibitory effect colon cancer cell line SW1417)) EUB0000734a CENPE; details: Affinity Phenotypic Cellular Source Knowledge https://pubmed.ncbi.nlm.nih.gov/20167803/
[8] = molecular target: Centromere-associated protein E (Homo sapiens) (UniProt Q02224); experiment: Affinity Phenotypic Cellular interaction: (Cell-growth inhibition assays (growth inhibitory effect colon cancer cell line SF-268)) EUB0000734a CENPE; details: Affinity Phenotypic Cellular Source Knowledge https://pubmed.ncbi.nlm.nih.gov/20167803/
[9] = molecular target: Centromere-associated protein E (Homo sapiens) (UniProt Q02224); experiment: Affinity Phenotypic Cellular interaction: (Cell-growth inhibition assays (growth inhibitory effect colon cancer cell line SF-539)) EUB0000734a CENPE; details: Affinity Phenotypic Cellular Source Knowledge https://pubmed.ncbi.nlm.nih.gov/20167803/
[10] = molecular target: Centromere-associated protein E (Homo sapiens) (UniProt Q02224); experiment: Affinity Phenotypic Cellular interaction: (Cell-growth inhibition assays (growth inhibitory effect colon cancer cell line DB)) EUB0000734a CENPE; details: Affinity Phenotypic Cellular Source Knowledge https://pubmed.ncbi.nlm.nih.gov/20167803/
[11] = molecular target: Centromere-associated protein E (Homo sapiens) (UniProt Q02224); experiment: Affinity Phenotypic Cellular interaction: (Cell-growth inhibition assays (growth inhibitory effect colon cancer cell line COLO-320DM)) EUB0000734a CENPE; details: Affinity Phenotypic Cellular Source Knowledge https://pubmed.ncbi.nlm.nih.gov/20167803/
[12] = molecular target: Centromere-associated protein E (Homo sapiens) (UniProt Q02224); experiment: Affinity Phenotypic Cellular interaction: (Cell-growth inhibition assays (growth inhibitory effect colon cancer cell line C3A)) EUB0000734a CENPE; details: Affinity Phenotypic Cellular Source Knowledge https://pubmed.ncbi.nlm.nih.gov/20167803/
[13] = molecular target: Centromere-associated protein E (Homo sapiens) (UniProt Q02224); experiment: Affinity Phenotypic Cellular interaction: (Cell-growth inhibition assays (growth inhibitory effect colon cancer cell line H4)) EUB0000734a CENPE; details: Affinity Phenotypic Cellular Source Knowledge https://pubmed.ncbi.nlm.nih.gov/20167803/
[14] = molecular target: Centromere-associated protein E (Homo sapiens) (UniProt Q02224); experiment: Affinity Phenotypic Cellular interaction: (Cell-growth inhibition assays (growth inhibitory effect colon cancer cell line CRO-AP2)) EUB0000734a CENPE; details: Affinity Phenotypic Cellular Source Knowledge https://pubmed.ncbi.nlm.nih.gov/20167803/
[15] = molecular target: Centromere-associated protein E (Homo sapiens) (UniProt Q02224); experiment: Affinity Phenotypic Cellular interaction: (Cell-growth inhibition assays (growth inhibitory effect colon cancer cell line U251)) EUB0000734a CENPE; details: U-251, Affinity Phenotypic Cellular Source Knowledge https://pubmed.ncbi.nlm.nih.gov/20167803/
[16] = molecular target: Centromere-associated protein E (Homo sapiens) (UniProt Q02224); experiment: Affinity Phenotypic Cellular interaction: (Cell-growth inhibition assays (growth inhibitory effect colon cancer cell line MIA PaCa-2)) EUB0000734a CENPE; details: Affinity Phenotypic Cellular Source Knowledge https://pubmed.ncbi.nlm.nih.gov/20167803/
[17] = molecular target: Centromere-associated protein E (Homo sapiens) (UniProt Q02224); experiment: Affinity Phenotypic Cellular interaction: (Cell-growth inhibition assays (growth inhibitory effect colon cancer cell line HCC1954)) EUB0000734a CENPE; details: Affinity Phenotypic Cellular Source Knowledge https://pubmed.ncbi.nlm.nih.gov/20167803/
[18] = molecular target: Centromere-associated protein E (Homo sapiens) (UniProt Q02224); experiment: Affinity Phenotypic Cellular interaction: (Cell-growth inhibition assays (growth inhibitory effect colon cancer cell line EKVX)) EUB0000734a CENPE; details: Affinity Phenotypic Cellular Source Knowledge https://pubmed.ncbi.nlm.nih.gov/20167803/
[19] = molecular target: Centromere-associated protein E (Homo sapiens) (UniProt Q02224); experiment: Affinity Phenotypic Cellular interaction: (Cell-growth inhibition assays (growth inhibitory effect colon cancer cell line SHP-77)) EUB0000734a CENPE; details: SHP77, Affinity Phenotypic Cellular Source Knowledge https://pubmed.ncbi.nlm.nih.gov/20167803/
[20] = molecular target: Centromere-associated protein E (Homo sapiens) (UniProt Q02224); experiment: Affinity Phenotypic Cellular interaction: (Cell-growth inhibition assays (growth inhibitory effect colon cancer cell line C-4I)) EUB0000734a CENPE; details: Affinity Phenotypic Cellular Source Knowledge https://pubmed.ncbi.nlm.nih.gov/20167803/
[21] = molecular target: Centromere-associated protein E (Homo sapiens) (UniProt Q02224); experiment: Affinity Phenotypic Cellular interaction: (Cell-growth inhibition assays (growth inhibitory effect colon cancer cell line T-47D)) EUB0000734a CENPE; details: T47D, Affinity Phenotypic Cellular Source Knowledge https://pubmed.ncbi.nlm.nih.gov/20167803/
[22] = molecular target: Centromere-associated protein E (Homo sapiens) (UniProt Q02224); experiment: Affinity Phenotypic Cellular interaction: (Cell-growth inhibition assays (growth inhibitory effect colon cancer cell line YAPC)) EUB0000734a CENPE; details: Affinity Phenotypic Cellular Source Knowledge https://pubmed.ncbi.nlm.nih.gov/20167803/
[23] = molecular target: Centromere-associated protein E (Homo sapiens) (UniProt Q02224); experiment: Affinity Phenotypic Cellular interaction: (Cell-growth inhibition assays (growth inhibitory effect colon cancer cell line LNCaP)) EUB0000734a CENPE; details: Affinity Phenotypic Cellular Source Knowledge https://pubmed.ncbi.nlm.nih.gov/20167803/
[24] = molecular target: Centromere-associated protein E (Homo sapiens) (UniProt Q02224); experiment: Affinity Phenotypic Cellular interaction: (Cell-growth inhibition assays (growth inhibitory effect colon cancer cell line SW-954)) EUB0000734a CENPE; details: Affinity Phenotypic Cellular Source Knowledge https://pubmed.ncbi.nlm.nih.gov/20167803/
[25] = molecular target: Centromere-associated protein E (Homo sapiens) (UniProt Q02224); experiment: Affinity Phenotypic Cellular interaction: (Cell-growth inhibition assays (growth inhibitory effect colon cancer cell line NCI/ADR-RES)) EUB0000734a CENPE; details: Affinity Phenotypic Cellular Source Knowledge https://pubmed.ncbi.nlm.nih.gov/20167803/
[26] = molecular target: Centromere-associated protein E (Homo sapiens) (UniProt Q02224); experiment: Affinity Phenotypic Cellular interaction: (Cell-growth inhibition assays (growth inhibitory effect colon cancer cell line Caki-2)) EUB0000734a CENPE; details: Affinity Phenotypic Cellular Source Knowledge https://pubmed.ncbi.nlm.nih.gov/20167803/
[27] = molecular target: Centromere-associated protein E (Homo sapiens) (UniProt Q02224); experiment: Affinity Phenotypic Cellular interaction: (Cell-growth inhibition assays (growth inhibitory effect colon cancer cell line HOP-62)) EUB0000734a CENPE; details: Affinity Phenotypic Cellular Source Knowledge https://pubmed.ncbi.nlm.nih.gov/20167803/
[28] = molecular target: Centromere-associated protein E (Homo sapiens) (UniProt Q02224); experiment: Affinity Phenotypic Cellular interaction: (Cell-growth inhibition assays (growth inhibitory effect colon cancer cell line MV-4-11)) EUB0000734a CENPE; details: MV4-11, Affinity Phenotypic Cellular Source Knowledge https://pubmed.ncbi.nlm.nih.gov/20167803/
[29] = molecular target: Centromere-associated protein E (Homo sapiens) (UniProt Q02224); experiment: Affinity Phenotypic Cellular interaction: (Cell-growth inhibition assays (growth inhibitory effect colon cancer cell line 786-O)) EUB0000734a CENPE; details: 786-0, Affinity Phenotypic Cellular Source Knowledge https://pubmed.ncbi.nlm.nih.gov/20167803/
[30] = molecular target: Centromere-associated protein E (Homo sapiens) (UniProt Q02224); experiment: Affinity Phenotypic Cellular interaction: (Cell-growth inhibition assays (growth inhibitory effect colon cancer cell line COLO 201)) EUB0000734a CENPE; details: Affinity Phenotypic Cellular Source Knowledge https://pubmed.ncbi.nlm.nih.gov/20167803/
[31] = molecular target: Centromere-associated protein E (Homo sapiens) (UniProt Q02224); experiment: Affinity Phenotypic Cellular interaction: (Cell-growth inhibition assays (growth inhibitory effect colon cancer cell line SNU-423)) EUB0000734a CENPE; details: Affinity Phenotypic Cellular Source Knowledge https://pubmed.ncbi.nlm.nih.gov/20167803/
[32] = molecular target: Centromere-associated protein E (Homo sapiens) (UniProt Q02224); experiment: Affinity Phenotypic Cellular interaction: (Cell-growth inhibition assays (growth inhibitory effect colon cancer cell line RXF393)) EUB0000734a CENPE; details: RXF 393, Affinity Phenotypic Cellular Source Knowledge https://pubmed.ncbi.nlm.nih.gov/20167803/
[33] = molecular target: Centromere-associated protein E (Homo sapiens) (UniProt Q02224); experiment: Affinity Phenotypic Cellular interaction: (Cell-growth inhibition assays (growth inhibitory effect colon cancer cell line RD)) EUB0000734a CENPE; details: Affinity Phenotypic Cellular Source Knowledge https://pubmed.ncbi.nlm.nih.gov/20167803/
[34] = molecular target: Centromere-associated protein E (Homo sapiens) (UniProt Q02224); experiment: Affinity Phenotypic Cellular interaction: (Cell-growth inhibition assays (growth inhibitory effect colon cancer cell line CAL-62)) EUB0000734a CENPE; details: Affinity Phenotypic Cellular Source Knowledge https://pubmed.ncbi.nlm.nih.gov/20167803/
[35] = molecular target: Centromere-associated protein E (Homo sapiens) (UniProt Q02224); experiment: Affinity Phenotypic Cellular interaction: (Cell-growth inhibition assays (growth inhibitory effect colon cancer cell line SW48)) EUB0000734a CENPE; details: Affinity Phenotypic Cellular Source Knowledge https://pubmed.ncbi.nlm.nih.gov/20167803/
[36] = molecular target: Centromere-associated protein E (Homo sapiens) (UniProt Q02224); experiment: Affinity Phenotypic Cellular interaction: (Cell-growth inhibition assays (growth inhibitory effect colon cancer cell line UACC-257)) EUB0000734a CENPE; details: Affinity Phenotypic Cellular Source Knowledge https://pubmed.ncbi.nlm.nih.gov/20167803/

Sequence of Centromere-associated protein E (Homo sapiens) (Q02224 whole entry): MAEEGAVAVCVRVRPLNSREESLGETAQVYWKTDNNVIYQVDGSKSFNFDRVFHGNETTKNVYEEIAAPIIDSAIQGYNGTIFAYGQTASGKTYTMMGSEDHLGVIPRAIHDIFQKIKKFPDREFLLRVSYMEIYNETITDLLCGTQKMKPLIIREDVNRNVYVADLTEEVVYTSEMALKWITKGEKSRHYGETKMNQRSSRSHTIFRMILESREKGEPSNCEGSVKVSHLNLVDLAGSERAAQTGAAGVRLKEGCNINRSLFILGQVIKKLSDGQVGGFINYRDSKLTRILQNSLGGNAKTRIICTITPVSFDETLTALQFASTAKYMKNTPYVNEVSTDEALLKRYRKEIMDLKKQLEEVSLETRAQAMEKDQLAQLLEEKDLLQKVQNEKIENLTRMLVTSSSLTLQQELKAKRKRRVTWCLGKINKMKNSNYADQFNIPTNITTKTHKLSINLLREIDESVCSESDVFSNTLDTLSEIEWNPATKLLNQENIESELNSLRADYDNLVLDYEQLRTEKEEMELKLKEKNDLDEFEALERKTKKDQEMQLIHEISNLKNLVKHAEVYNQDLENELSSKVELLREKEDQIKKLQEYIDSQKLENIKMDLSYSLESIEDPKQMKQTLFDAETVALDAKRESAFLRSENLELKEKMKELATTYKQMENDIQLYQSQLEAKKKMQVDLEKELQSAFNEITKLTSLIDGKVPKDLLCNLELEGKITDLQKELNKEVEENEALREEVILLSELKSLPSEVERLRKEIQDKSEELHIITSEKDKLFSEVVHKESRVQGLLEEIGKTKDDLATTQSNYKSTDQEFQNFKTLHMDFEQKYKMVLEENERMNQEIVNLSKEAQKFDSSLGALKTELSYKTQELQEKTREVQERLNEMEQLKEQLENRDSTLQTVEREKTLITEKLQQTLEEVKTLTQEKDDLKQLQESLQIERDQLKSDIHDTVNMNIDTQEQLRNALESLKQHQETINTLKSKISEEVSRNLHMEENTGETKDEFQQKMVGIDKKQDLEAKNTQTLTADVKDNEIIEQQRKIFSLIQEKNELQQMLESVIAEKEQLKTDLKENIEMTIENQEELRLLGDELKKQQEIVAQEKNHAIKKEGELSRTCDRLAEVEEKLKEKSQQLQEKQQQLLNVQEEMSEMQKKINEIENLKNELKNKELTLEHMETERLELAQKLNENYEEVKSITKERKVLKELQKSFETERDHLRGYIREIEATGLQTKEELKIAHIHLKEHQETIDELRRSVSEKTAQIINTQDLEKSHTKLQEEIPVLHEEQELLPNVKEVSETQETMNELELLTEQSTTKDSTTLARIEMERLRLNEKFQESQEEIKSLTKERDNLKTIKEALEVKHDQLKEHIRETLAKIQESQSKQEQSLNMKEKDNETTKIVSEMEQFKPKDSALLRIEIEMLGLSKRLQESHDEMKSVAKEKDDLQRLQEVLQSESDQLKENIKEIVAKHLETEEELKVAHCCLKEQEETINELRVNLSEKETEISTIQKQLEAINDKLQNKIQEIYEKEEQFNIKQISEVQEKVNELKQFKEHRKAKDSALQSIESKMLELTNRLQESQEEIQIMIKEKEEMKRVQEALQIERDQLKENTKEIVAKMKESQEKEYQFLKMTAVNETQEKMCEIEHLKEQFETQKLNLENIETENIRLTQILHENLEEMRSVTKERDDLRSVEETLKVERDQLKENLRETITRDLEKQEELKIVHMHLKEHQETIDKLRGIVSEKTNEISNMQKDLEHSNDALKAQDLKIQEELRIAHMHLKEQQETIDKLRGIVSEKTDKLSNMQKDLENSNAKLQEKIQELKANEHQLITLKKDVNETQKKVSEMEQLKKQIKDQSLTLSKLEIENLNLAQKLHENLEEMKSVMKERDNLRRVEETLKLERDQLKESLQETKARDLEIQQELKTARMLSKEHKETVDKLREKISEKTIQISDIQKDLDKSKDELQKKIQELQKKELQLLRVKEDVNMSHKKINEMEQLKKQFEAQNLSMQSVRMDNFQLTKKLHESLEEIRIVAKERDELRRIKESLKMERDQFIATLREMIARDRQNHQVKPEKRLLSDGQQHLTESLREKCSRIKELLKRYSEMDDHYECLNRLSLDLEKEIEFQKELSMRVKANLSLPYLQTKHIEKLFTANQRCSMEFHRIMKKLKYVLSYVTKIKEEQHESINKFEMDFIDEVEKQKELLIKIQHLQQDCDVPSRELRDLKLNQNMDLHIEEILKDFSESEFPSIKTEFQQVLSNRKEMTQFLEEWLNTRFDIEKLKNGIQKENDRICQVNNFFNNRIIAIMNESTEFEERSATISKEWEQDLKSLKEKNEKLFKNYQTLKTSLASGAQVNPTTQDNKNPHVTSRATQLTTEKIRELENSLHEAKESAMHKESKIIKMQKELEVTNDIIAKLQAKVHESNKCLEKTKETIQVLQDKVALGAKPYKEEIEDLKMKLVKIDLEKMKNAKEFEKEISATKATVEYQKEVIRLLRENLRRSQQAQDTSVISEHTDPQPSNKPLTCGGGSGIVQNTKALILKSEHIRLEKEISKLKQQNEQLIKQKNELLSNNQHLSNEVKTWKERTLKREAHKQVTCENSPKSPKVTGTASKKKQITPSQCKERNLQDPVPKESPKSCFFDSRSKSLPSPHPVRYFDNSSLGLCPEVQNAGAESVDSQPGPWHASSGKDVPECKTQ

CC(C)Oc1ccc(C(=O)N[C@H](CNC(=O)CN(C)C)Cc2ccc(-c3cn4cccc([C@H](C)O)c4n3)cc2)cc1Cl
GIC50 [1]: 70 nM
GIC50 [2]: 20 nM
GIC50 [3]: 30 nM
GIC50 [4]: 27 nM
GIC50 [5]: 27 nM
GIC50 [6]: 24 nM
GIC50 [7]: 29 nM
GIC50 [8]: 26 nM
GIC50 [9]: 28 nM
GIC50 [10]: 21 nM
GIC50 [11]: 306 nM
GIC50 [12]: 54 nM
GIC50 [13]: 31 nM
GIC50 [14]: 51 nM
GIC50 [15]: 26 nM
GIC50 [16]: 23 nM
GIC50 [17]: 18 nM
GIC50 [18]: 28 nM
GIC50 [19]: 86 nM
GIC50 [20]: 42 nM
GIC50 [21]: 29 nM
GIC50 [22]: 59 nM
GIC50 [23]: 76 nM
GIC50 [24]: 22 nM
GIC50 [25]: 3.96 µM
GIC50 [26]: 25 nM
GIC50 [27]: 20 nM
GIC50 [28]: 29 nM
GIC50 [29]: 45 nM
GIC50 [30]: 24 nM
GIC50 [31]: 34 nM
GIC50 [32]: 32 nM
GIC50 [33]: 28 nM
GIC50 [34]: 30 nM
GIC50 [35]: 25 nM
GIC50 [36]: 32 nM

Reference: ChEMBL document CHEMBL5444388, “Affinity Phenotypic Cellular Literature for EUbOPEN Chemogenomic Library” (2024)
